Source: ChEMBL document CHEMBL3352806, “Cytotoxic bibenzyl dimers from the stems of Dendrobium fimbriatum Hook” (Bioorg Med Chem Lett, 2014)
Active and inactive are the calls of the source. The calls are words filed in the database; no cut-off is given here.

How the values were obtained:
Type in all cases: functional, cell-based
[1] = Cytotoxicity against human HL60 cells assessed as reduction in cell number; settings: HL-60
SMMC-7721 [2] = experiment: Cytotoxicity against human SMMC7721 cells assessed as reduction in cell number
A549 [3] = experiment: Cytotoxicity against human A549 cells assessed as reduction in cell number
MCF7 [4] = experiment: Cytotoxicity against human MCF7 cells assessed as reduction in cell number
SW480 [5] = experiment: Cytotoxicity against human SW480 cells assessed as reduction in cell number
HL-60 = experiment: Cytotoxicity against human HL60 cells assessed as reduction in cell number at 40 uM
SMMC-7721 [6] = experiment: Cytotoxicity against human SMMC7721 cells assessed as reduction in cell number at 40 uM
A549 [7] = experiment: Cytotoxicity against human A549 cells assessed as reduction in cell number at 40 uM
MCF7 [8] = experiment: Cytotoxicity against human MCF7 cells assessed as reduction in cell number at 40 uM
SW480 [9] = experiment: Cytotoxicity against human SW480 cells assessed as reduction in cell number at 40 uM

Compound	IC50 [1]	IC50 (SMMC-7721 [2])	IC50 (A549 [3])	IC50 (MCF7 [4])	IC50 (SW480 [5])	Activity (HL-60)	Activity (SMMC-7721 [6])	Activity (A549 [7])	Activity (MCF7 [8])	Activity (SW480 [9])
COc1cc(O)c(Cc2c(O)cc(CCc3ccc(O)c(OC)c3)cc2OC)c(CCc2ccc(O)c(OC)c2)c1	16.1 µM	18.3 µM	16.3 µM	12.7 µM	17.2 µM					
COc1cc(CCc2cc(O)c(Cc3c(CCc4ccc(O)c(OC)c4)cc(O)cc3OC)c(OC)c2)ccc1O	15.8 µM	16.6 µM	15.6 µM	12.1 µM	18.2 µM					
COc1cc(CCc2cc(O)c(OC)c(OC)c2)ccc1O	24.3 µM	> 40 µM	> 40 µM	37.1 µM	> 40 µM					
COc1cc(CCc2cc(O)c(Cc3c(CCc4cccc(O)c4)cc(O)cc3OC)c(OC)c2)ccc1O	22.3 µM	> 40 µM	> 40 µM	24.8 µM	> 40 µM					
Oc1cc(O)c2c(c1)C[C@H](O)c1cccc(O)c1-2						inactive	inactive	inactive	inactive	inactive
COc1cc(CCc2cc(O)cc(OC)c2Cc2c(CCc3ccc(O)c(OC)c3)cc(O)cc2OC)ccc1O	13.9 µM	16.9 µM	14.5 µM	5.85 µM	18.8 µM					
COc1ccc(CCc2cc(OC)c(O)c(OC)c2)cc1O	2.95 µM	10.1 µM	6.6 µM	12.3 µM	5.17 µM					
COc1cc(O)c(Cc2c(CCc3ccc(O)c(OC)c3)cc(O)cc2OC)c(CCc2ccc(O)c(OC)c2)c1	16.8 µM	18.9 µM	16.5 µM	7.75 µM	21.2 µM					
COc1cc(O)cc(CCc2ccc(O)c(OC)c2)c1						inactive	inactive	inactive	inactive	inactive
COc1cc(O)c(Cc2c(O)cc(OC)cc2CCc2ccc(O)c(OC)c2)c(CCc2ccc(O)c(OC)c2)c1	19.1 µM	17.5 µM	16.6 µM	13.7 µM	18.8 µM					
COc1cc(CC(OC)c2cc(OC)c(O)c(OC)c2)ccc1O (stereo not given)						inactive	inactive	inactive	inactive	inactive
COc1cc(CCc2cc(O)cc(O)c2Cc2c(O)cc(O)cc2CCc2ccc(O)c(OC)c2)ccc1O						inactive	inactive	inactive	inactive	inactive
COc1cc(CCc2cc(OC)c(O)c(OC)c2)ccc1O [MOSCATILIN]	2.18 µM	4.07 µM	5.73 µM	6.2 µM	6.88 µM					
COc1cc(CCc2cc(O)cc(O)c2)ccc1O						inactive	inactive	inactive	inactive	inactive
COc1cc(O)cc(CCc2cccc(O)c2)c1						inactive	inactive	inactive	inactive	inactive
